Measured values: patent US7569594B2, “Analogs of leucascandrolide A” (The University of Chicago, priority 2005, dated 2009)

Assays:
Yeast = Yeast activity; type: cell-based
[1] = tested on: A549, PC3 and HCT116 cells; test: Cell Growth/Viability Assays (CellTiter-Glo); type: cell-based; settings: Homo sapiens; 48 h incubation; cancer cells
Method: Cell Growth/Viability Assays. All assays were performed using at least three replicate wells for each compound concentration tested. Cells were seeded in 96-well white plates at the density of 1000 cells/well in 100 μL of the appropriate cell culture media. Adherent A549, PC3 and HCT116 cells were allowed to attach and grow for 24 h and then treated with 30 μL of the solution of a compound and incubated further for 48 h. After incubation, cell viability was determined using a luminescence-based commercial kit (CellTiter-Glo, Promega) and luminescence was analyzed using a Wallac Victor III plate reader. Compound concentration that gave 50% reduction in cell viability when compared with untreated control cells was calculated from sigmoidal plots of cell viability versus drug concentration. To measure cell growth inhibition, similar viability assays were performed twice: at 0 h and after 48 h incubation. And then change in number of viable cells was measured and calculated from sigmoidal plots.
Biological Activity—Using methods similar to that described above, the following compounds were tested.

[2] = tested on: W303 strain of yeast S. cerevisiae; settings: 11.2 mg per disk; cited from earlier work
[3] = tested on: human A549 non-small lung caner cells; settings: cited from earlier work
[4] = tested on: HCT-116 colon cancer cells; settings: HCT-116 cells; cited from earlier work

| Structure (SMILES) | Yeast: Active/Inactive (Yeast) | GI50 [1] [µM] | inhibition diameter per disk [2] [mm] | GI50 [3] [µM] | GI50 [4] [µM] |
| --- | --- | --- | --- | --- | --- |
| COC(=O)NC/C=C\c1nc(CC/C=C\C(=O)O[C@@H]2CC3CC(=O)O[C@H](/C=C/CC(C)C)CC4CCCC(C[C@H](OC)CC(C2)O3)O4)co1 (some centres unmarked) | Yeast: Active | 0.01 to 0.1 | – | – | – |
| COC(=O)NC/C=C\c1nc(CC/C=C\C(=O)O[C@H]2CC3CC(=O)O[C@@H](CCCC(C)C)CC4CCCC(C[C@@H](OC)CC(C2)O3)O4)co1 (mixture of isomers) [racemic JJ-2-96] | Yeast: Active | 0.001 to 0.01 | – | – | – |
| CCCCC[C@H]1CC2CCCC(C[C@@H](OC)CC3C[C@@H](OC(=O)/C=C\CCc4coc(/C=C\CNC(=O)OC)n4)CC(CC(=O)O1)O3)O2 (mixture of isomers) [racemic JJ-2-173] | Yeast: Active | 0.001 to 0.01 | – | – | – |
| COC(=O)NC/C=C\c1nc(CC/C=C\C(=O)O[C@H]2CC3CC(=O)O[C@@H](CCCCCO)CC4CCCC(C[C@@H](OC)CC(C2)O3)O4)co1 (mixture of isomers) [racemic JJ-2-194] | Yeast: Inactive | 0.01 to 0.1 | – | – | – |
| C#CCCCCCCCC[C@H]1CC2CCCC(C[C@@H](OC)CC3C[C@@H](OC(=O)/C=C\CCc4coc(/C=C\CNC(=O)OC)n4)CC(CC(=O)O1)O3)O2 (mixture of isomers) [racemic JJ-2-286] | Yeast: Active | 0.001 to 0.01 | – | – | – |
| COC(=O)NC/C=C\c1nc(CC/C=C\C(=O)O[C@H]2CC3CC(=O)O[C@@H](CCCCCCCCc4cn(CCCNC(=O)OC(C)(C)C)nn4)CC4CCCC(C[C@@H](OC)CC(C2)O3)O4)co1 (mixture of isomers) [racemic JJ-2-288] | Yeast: Active | 0.01 to 0.1 | – | – | – |
| COC(=O)NC/C=C\c1nc(CC/C=C\C(=O)O[C@H]2CC3CC(=O)O[C@@H](/C=C/CC(C)C)CC4CCCC(C[C@@H](OC)CC(C2)O3)O4)co1 (single isomer, unassigned; (+)) [(+)-JJ-2-37] | Yeas: Active | 0.001 to 0.01 | – | – | – |
| COC(=O)NC/C=C\c1nc(CC/C=C\C(=O)OC2CC3CC(=O)O[C@H](/C=C/CC(C)C)C[C@H]4CCC(C)C(C[C@H](OC)CC(C2)O3)O4)co1 (some centres unmarked) [Leucascandrolide A] | – | – | 33 | 0.00093 | 0.00087 |
